Results on one molecule are retold here after patent US11235023B2, “Beta-hairpin peptidomimetic with elastase inhibitory activity and aerosol dosage forms thereof” (POLYPHOR AG, priority 2016, dated 2022).

Data set [1] in a line: Phase-Ib study in CF patients, plasma pharmacokinetics (LC-MS/MS). In kind it is in vivo. The note with it: human, inhaled or intranasal; for Tmax: inhalation, CF patients; for level at 24 h: read-out: mean plasma concentration 24 hours after inhalation; for half-life: read-out: mean terminal half-life (plasma) (converted). Here is the method: AUC0-∞, AUC0-∞/D, Cmax, Cmax/D of active compound in plasma as primary variables and tmax, t1/2, λ2, […] of active compound in plasma as secondary variables.
Blood samples for the determination of the plasma concentrations of active compound were taken at the following points in time:
On Day 1 at pre-dose, 10 min, and 0.5 h, 1 h, 2 h, 3 h, 4 h, 6 h, 8 h, 12 h, 15 h, and on Day 2 at 24 h post dose (after start of inhalation).
The samples were collected in closed K3-EDTA plasma sampling tubes (Monovette® Sarstedt, Germany). The accepted time-interval for sample handling procedures for each individual study sample, i.e., the time between sample collection and sample centrifugation had not to exceed 60 min, and the time between the end of centrifugation and sample freezing had also not to exceed 60 min.
The samples were centrifuged at approximately 4° C. (±2° C.) at 2200×g for 15 min.
The resulting plasma supernatant was then transferred into 2 polypropylene tubes (1st aliquot of at least 1 mL and backup) and frozen in upright position below […]
For the analysis of active compound in plasma, a validated and highly sensitive liquid chromatography tandem mass spectrometry (LC-MS/MS) method was used.
The pharmacokinetic parameters mentioned above were calculated based on actual blood and sputum sampling times using non-compartmental procedures.

Data set [2] can be described thus: Phase-Ib single ascending dose study in patients with cystic fibrosis, safety and tolerability. In kind it is in vivo, human. From the text: In this randomised, double-blind, placebo-controlled, parallel-group (per dose level) dose-escalation study, the safety and tolerability of single ascending doses (SAD) of acetate salt of cyclo(-OctG-Glu-Thr-Ala-Ser-Ile-Pro-Pro-Gln-Lys-Tyr-^DPro-Pro-) administered by inhalation in patients with cystic fibrosis (CF) was investigated. Additionally, the pharmacokinetics of the drug following a single ascending dose in plasma and sputum as well as its pharmacodynamic effect on neutrophil elastase activity in sputum were evaluated.
In this study, conducted by Inamed GmbH, Gauting, Germany, 24 subjects with cystic fibrosis, who fulfilled all the inclusion criteria and in whom no exclusion criterion was present, were included and received randomised treatment. They were grouped into 3 dose groups of 8 subjects each. 6 subjects received the formulation described in Example 1 and dilutions thereof and 2 subjects received placebo (0.5% [w/w] aqueous sodium chloride solution adjusted to pH 5.5 with 1 M HCl pharmaceutical grade). The oral inhalation of the above formulation as well as the placebo occurred via the Pari eFlow® XL 30 nebulizer device (Pari Pharma GmbH, Starnberg, Germany). The dose levels and corresponding concentrations of cyclo(-OctG-Glu-Thr-Ala-Ser-Ile-Pro-Pro-Gln-Lys-Tyr-^DPro-Pro-) (active compound) are summarized in Table 14.
The volume of placebo nebulizer solution corresponded to that of the active compound at a particular dose level. The duration of inhalation was estimated to be between 7 and 20 min. Adverse events were tabulated and summarized according to the current version of Medical Dictionary for Regulatory Activities.

A short description of data set [3]: GLP-compliant 28-day inhalation toxicity study in rats. In kind it is in vivo, rat. As to the method:
In a GLP-compliant 28-day inhalation toxicity study in rats, conducted by Charles River Laboratories Preclinical Services, Tranent, Edinburgh, UK, the formulation described in Example 2 and dilutions thereof as well as the vehicle were administered using the Pari eFlow® XL 30 nebulizer device (Pari Pharma, Starnberg, Germany) for 100 min per day for 28 days, followed by a 2-week recovery period. […] Ten animals were used for the main toxicity study, and 5 additional animals for the recovery phase. Parameters assessed included clinical signs, body weights, food consumption, ophthalmic examination, clinical pathology, gross necropsy findings, organ weights and histopathologic examinations. […] This was associated with reduction in food consumption in treated animals. There was a good recovery in body weight gain during the recovery period between day 28 and 42.

The structures appear in SMILES notation. Read-outs that look alike come from different tables or passages of the source. Non-standard residues stand in square brackets, D forms with d. Residues, ends and D or L forms follow the SMILES beside them. Gly(octyl) = CCCCCCCC[C@H](N)C(=O)O

As a reminder, the Tmax is the time at which the peak concentration occurs. By half-life is commonly meant the time in which the quantity being followed falls by half. Usually NOAEL stands for the highest tested level that showed no adverse finding. Turning to `CCCCCCCC[C@@H]1NC(=O)[C@@H]2CCCN2C(=O)[C@H]2CCCN2C(=O)[C@H](Cc2ccc(O)cc2)NC(=O)[C@H](CCCCN)NC(=O)[C@H](CCC(N)=O)NC(=O)[C@@H]2CCCN2C(=O)[C@@H]2CCCN2C(=O)[C@H]([C@@H](C)CC)NC(=O)[C@H](CO)NC(=O)[C@H](C)NC(=O)[C@H]([C@@H](C)O)NC(=O)[C@H](CCC(=O)O)NC1=O` [active compound, cyclo(-OctG-Glu-Thr-Ala-Ser-Ile-Pro-Pro-Gln-Lys-Tyr-^DPro-Pro-)] (cyclo([Gly(octyl)]ETASIPPQKY[dP]P)), in data set [1] (dose group 1 (80 mg)), the Tmax was found to be 1.3 h, the level at 24 h came out at 2.8 ng/mL and the half-life is 4.1 h. In data set [1] (dose group 2 (160 mg)), the Tmax was 1.5 h, the level at 24 h stood at 4.4 ng/mL and the half-life was 3.5 h. For the same molecule, in data set [1] (dose group 3 (320 mg)), the Tmax was determined as 2.3 h, the level at 24 h is 15.2 ng/mL and the half-life was 3.8 h. In data set [2] (CF patients, single inhaled doses 80, 160, 320 mg), the “Deaths, serious and other significant adverse events” value was “No death, no serious adverse events (AE) and no other significant AE”. Also, in data set [2] (human, in vivo), the “Causal relationship of TEAEs” value is “not related to the active compound”, the “Inhalation-related local AEs” value is on record as “no inhalation-related local AEs” and the “Total number of AEs (all TEAEs)” value came to 6. In data set [3] (in vivo, inhaled or intranasal, rat, inhalation 100 min per day for 28 days, read-out: No Observed Adverse Effect Level (NOAEL)), the NOAEL at 28 days worked out at 119 mg/kg/day. In data set [3] (male rats at 119 mg/kg/day vs vehicle control), the Body weight gain result is on record as “Slightly reduced”. Moreover, the “Clinical signs and ophthalmic findings” value in data set [3] (rat, 11, 53 and 119 mg/kg/day) is “no clinical signs or ophthalmic findings”. In data set [3] (rat, in vivo), the “Clinical pathology (haematology, coagulation, clinical chemistry, urinalysis)” value is “no findings in clinical pathology”; the “Histopathology of the larynx” value was “focal minimal squamous metaplasia without cellular atypia of dysplasia”; the “Histopathology of the lungs” value is listed as “minimal to moderate multifocal alveolar macrophage accumulation”.
